In patent US20240384250A1, “FIBROBLAST GROWTH FACTOR 23 MODULATING COMPOUNDS” (THE UAB RESEARCH FOUNDATION, priority 2021, published 2024):

Test system: neonatal rat ventricular myocytes
Assay: Hypertrophic growth of isolated neonatal rat ventricular myocytes (cell area)
Type: cell-based
Conditions: for FGF23-induced increase in the cell area in the presence of heparin: heparin 0.19 USP/ml, increasing FGF23 concentrations, 48 hours
Method: Neonatal rat ventricular myocytes (NRVMs) were isolated using a kit according to the manufacturer's protocol (LK003300, Worthington Biochemical Corporation), as done previously.^13,16,17 Briefly, hearts from 1- to 3-day-old Sprague Dawley rats (Envigo) were harvested and minced in calcium- and magnesium-free Hanks balanced salt solution and the tissue was digested with 50 μg/ml of trypsin at 4° C. for 20 to 24 hours. Soybean trypsin inhibitor in Hanks balanced salt solution was added, and the tissue was further digested with collagenase (in Leibovitz L-15 medium) under slow rotation (0.14 g) at 37° C. for 45 minutes. Cells were broken up by triturating the suspension 20× with a standard 10-ml plastic serological pipette. Cells were then filtered through a cell strainer (70 μm, BD Falcon). Cells were incubated at room temperature for 20 minutes and spun at 100 g for 5 minutes. The cell pellet was resuspended in plating medium (DMEM Base [10013CV, Corning], 17% M199 [12350039, Gibco], 15% FBS [26140079, Gibco], I× Pen/Strep [15140122, Gibco]). For cell tracings, NRVMs were grown in 24-well plates on glass coverslips (CLS1760012, Chemglass). Slips were precoated with laminin (23017015, Invitrogen) at 10 μg/ml for 1 hour at 37° C. dissolved in PBS. Laminin was aspirated, and cells and medium were added. Cells were counted by a hemocytometer and plated at 4×10^5 cells per well. […] After 48 hours, maintenance medium was replaced, and after another 48 hours, cells were ready for treatment, giving a total of 72 hours of plating medium and 96 hours of maintenance medium before treatment. […]
The medium was aspirated, and cultured NRVMs were fixed in 2% paraformaldehyde (P-6148, Sigma-Aldrich) and 4% sucrose dissolved in PBS for 5 minutes followed by permeabilization with 1% Triton X-100 dissolved in PBS for 10 minutes. […] The cross-sectional area of myocytes was measured on the basis of α-actinin-positive staining using ImageJ software (v1.53, National Institutes of Health). […]

## heparin [reference compound]
  FGF23-induced increase in the cell area in the presence of heparin: increased this effect at all FGF23 concentrations
Listed as heparin
  FGF23-induced increase in the cell area in the presence of heparin: further elevated
Without FGF23, 48 hours
  NRVM area, treatment by itself: no effect
